Drawing on patent publication US7205403B2, “8-Heteroaryl xanthine adenosine A2B receptor antagonists” (King Pharmaceuticals Research and Development, Inc., priority 2002, dated 2007), this text covers Ki for 19 compounds.

SMILES strings stand for the structures.

The target in experiment [1] is T1, human A2B adenosine receptor (Homo sapiens, UniProt P29275).
T1 sequence (P29275 1-332): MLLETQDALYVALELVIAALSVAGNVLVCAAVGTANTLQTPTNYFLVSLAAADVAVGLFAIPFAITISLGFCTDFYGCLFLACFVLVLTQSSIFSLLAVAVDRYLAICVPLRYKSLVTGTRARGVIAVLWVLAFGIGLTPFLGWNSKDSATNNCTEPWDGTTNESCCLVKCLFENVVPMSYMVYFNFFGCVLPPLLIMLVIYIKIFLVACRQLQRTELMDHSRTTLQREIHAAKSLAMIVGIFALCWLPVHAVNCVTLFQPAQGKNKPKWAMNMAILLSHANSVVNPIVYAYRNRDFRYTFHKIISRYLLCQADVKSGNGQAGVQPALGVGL
Briefly: [3H]DPCPX binding to human A2B receptors expressed in HEK293 cells. Set-up: host or cells: HEK 293 cells (membranes). The settings on record: geometric mean (95% confidence interval); >1000 = no appreciable binding; read-out: Ki, [3H]DPCPX binding to human A2B receptors expressed in HEK293 cells. On the procedure: HEK 293 cells transfected with the human recombinant A2B adenosine receptor were obtained from Receptor Biology, Inc. (Beltsville, Md. USA).
Binding of 1 [^3H]-DPCPX to HEK 293 cells transfected with the human recombinant A2B adenosine receptors was performed according to the method described by Varani et al., 2000. In particular, assays were carried out for 60 minutes at 25° C. in 100 μl of […] Tris HCl buffer, […] MgCl2, 1 mM EDTA, 0.1 mM benzamidine pH 7.4, 2 IU/ml adenosine deaminase containing 40 nM [^3H]-DPCPX, diluted membranes (20 μg of protein/assay) and at least 6–8 different concentration of tested compounds.
(§1) The filter bound radioactivity was counted on Top Count (efficiency 57%) with Micro-Scint 20.
(§2) The filter bound radioactivity was counted on a Top Count brand Microplate Scintillation Counter (efficiency 57%) with Micro-Scint 20. […] Inhibitory binding constant. […] Results and Discussion

Experiment [2] deals with T2, human A3 adenosine receptor (Homo sapiens, UniProt P0DMS8).
T2 construct: expressed in transfected cells; host or cells: CHO cells (membranes)
T2 sequence (P0DMS8 1-318): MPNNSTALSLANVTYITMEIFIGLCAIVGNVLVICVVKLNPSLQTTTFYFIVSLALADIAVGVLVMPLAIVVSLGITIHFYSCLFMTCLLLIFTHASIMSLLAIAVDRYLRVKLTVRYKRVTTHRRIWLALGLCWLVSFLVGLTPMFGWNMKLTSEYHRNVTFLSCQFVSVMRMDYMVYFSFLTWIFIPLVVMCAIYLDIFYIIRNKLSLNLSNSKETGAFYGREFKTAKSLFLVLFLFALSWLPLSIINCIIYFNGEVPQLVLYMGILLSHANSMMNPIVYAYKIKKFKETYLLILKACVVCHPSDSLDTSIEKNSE
Briefly: [3H]MRE3008F20 binding to human A3 receptors expressed in CHO cells. On the procedure: (§3) The cells were grown adherently and maintained in Dulbecco's modified Eagle's medium with nutrient mixture F12 without nucleosides at 37° C. in 5% CO2/95% air. The cells were washed with phosphate-buffered saline and scraped off flasks in ice cold hypotonic buffer ([…] Tris HCl, 2 mM EDTA, pH 7.4). The cell suspension was homogenized with a Polytron and the homogenate was centrifuged for 30 minutes at 48,000 g. The resultant membrane pellet was re-suspended in 50 mM Tris HCl buffer at pH 7.4 for A1 adenosine receptors; in 50 mM Tris HCl 10 mM MgCl, at pH 7.4 for A2A adenosine receptors; in 50 mM Tris HCl, 10 mM MgCl2, 1 mM EDTA, at pH 7.4 for A3 adenosine receptors and were utilized for binding assays.
Binding of [^3H]-MRE3008-F20 to CHO cells transfected with the human recombinant A3 adenosine receptors was performed according to Varani et al., 2000. Competition experiments were carried out in duplicate in a final volume of 250 μl in test tubes containing 1 nM [^3H]-MRE3008-F20, 50 mM Tris HCl buffer, […] MgCl2, pH 7.4 and 100 μl of diluted membranes (50 μg of protein/assay) and at least 6–8 different concentrations of examined ligands for 120 minutes at 4° C.
as §1, §2

The target in experiment [3] is T3, human A2A adenosine receptor (Homo sapiens, UniProt P29274).
T3 construct: expressed in transfected cells; host or cells: CHO cells (membranes)
T3 sequence (P29274 whole entry): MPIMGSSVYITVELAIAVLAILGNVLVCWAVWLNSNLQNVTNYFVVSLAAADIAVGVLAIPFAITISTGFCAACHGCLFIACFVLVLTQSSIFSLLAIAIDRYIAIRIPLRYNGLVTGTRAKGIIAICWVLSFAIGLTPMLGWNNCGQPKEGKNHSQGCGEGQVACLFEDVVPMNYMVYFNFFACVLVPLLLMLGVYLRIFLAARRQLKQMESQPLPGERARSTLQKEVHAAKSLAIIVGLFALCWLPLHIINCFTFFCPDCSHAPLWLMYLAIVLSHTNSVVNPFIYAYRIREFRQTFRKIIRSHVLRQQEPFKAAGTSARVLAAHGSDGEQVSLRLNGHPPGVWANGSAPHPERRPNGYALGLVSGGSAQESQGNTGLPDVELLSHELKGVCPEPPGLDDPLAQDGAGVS
In words: [3H]ZM241385 binding to human A2A receptors expressed in CHO cells. The settings on record: read-out: Ki, [3H]ZM241385 binding to human A2A receptors expressed in CHO cells. The method, then:
as §3, §1, §2

In the case of `CCCn1c(=O)c2[nH]c(-c3cc(NC(=O)Cc4ccc(CC(C)C)cc4)nn3C)nc2n(CCC)c1=O` [AS14, N-[5-(2,6-dioxo-1,3-dipropyl-2,3,6,9-tetrahydro-1H-purin-8-yl)-1-methyl-1H-pyrazol-3-yl]-2-(4-isobutylphenyl)acetamide], the Ki in experiment [1], in experiment [2] and in experiment [3] was > 1000 nM each time.
As for `CCCn1c(=O)c2[nH]c(-c3cc(NC(=O)[C@H](C)c4ccccc4)nn3C)nc2n(CCC)c1=O` [AS19, (2R)-N-[5-(2,6-dioxo-1,3-dipropyl-2,3,6,7-tetrahydro-1H-purin-8-yl)-1-methyl-1H-pyrazol-3-yl]-2-phenylpropanamide], the inhibition constant Ki in experiment [1], in experiment [2] and in experiment [3] was > 1000 nM each time.
As to `CCCn1c(=O)c2[nH]c(-c3cc(OCC(=O)N4CCN(C)CC4)nn3C)nc2n(CCC)c1=O` [AS87, 1,3-di-n-propyl-8-{5-[2-Oxo-2-(4-methyl-piperazin-1-yl)-ethoxy]-2-methyl-2H-pyrazole-3-yl}-xanthine], the Ki is 122 nM in experiment [1], > 1000 nM in experiment [2] and > 1000 nM in experiment [3].
On to `CCCn1c(=O)c2[nH]c(-c3cc(OCC(=O)Nc4ccc(OC)c(OC)c4)nn3C)nc2n(CCC)c1=O` [AS101, 1,3-di-n-propyl-8-{5-[(3,4-dimethoxy-phenylcarbamoyl)-methoxy]-2-methyl-2H-pyrazole-3-yl}-xanthine], for which the figures for the Ki in experiment [1], in experiment [2] and in experiment [3] were 12 nM, > 1000 nM and > 1000 nM, respectively.
With `CCCn1c(=O)c2[nH]c(-c3cc(OCC(=O)Nc4ccc(C(=O)O)cc4)nn3C)nc2n(CCC)c1=O` [AS95, 1,3-di-n-propyl-8-{5-[(4-carboxy-phenylcarbamoyl)-methoxy]-2-methyl-2H-pyrazole-3-yl}-xanthine], the values for the inhibition constant (Ki) in experiment [1], in experiment [2] and in experiment [3] were 36 nM, > 1000 nM and > 1000 nM, respectively.
`CCCn1c(=O)c2[nH]c(-c3ccc(OCC(=O)Nc4ccc(I)cc4)nc3)nc2n(CCC)c1=O` [AS81, 1,3-di-n-propyl-8-{6-[(4-iodo-phenylcarbamoyl)-methoxy]-pyridin-3-yl}-xanthine]: the Ki in experiment [1] is 108 nM; in experiment [2] it was > 1000 nM; in experiment [3], > 1000 nM.
For `CCCn1c(=O)c2[nH]c(-c3cc(OCC(=O)Nc4ccc(N5CCOCC5)cc4)nn3C)nc2n(CCC)c1=O` [AS93, 1,3-di-n-propyl-8-{5-[(4-(morpholine-4-yl)-phenylcarbamoyl)-methoxy]-2-methyl-2H-pyrazole-3-yl}-xanthine], the inhibition constant (Ki) was 86 nM in experiment [1], > 1000 nM in experiment [2] and > 1000 nM in experiment [3].
As to `CCCn1c(=O)c2[nH]c(-c3cc(C(=O)O)n(C)n3)nc2n(CCC)c1=O` [AS1, 1,3-di-n-propyl-8-(1-methyl-5-carboxy-1-H-pyrazol-3-yl)-xanthine], the Ki in experiment [1], in experiment [2] and in experiment [3] was > 1000 nM each time.
In the case of `CCCn1c(=O)c2[nH]c(-c3cc(NC(=O)[C@@H](C)c4ccccc4)nn3C)nc2n(CCC)c1=O` [AS18, (2S)-N-[5-(2,6-dioxo-1,3-dipropyl-2,3,6,7-tetrahydro-1H-purin-8-yl)-1-methyl-1H-pyrazol-3-yl]-2-phenylpropanamide], the Ki in experiment [1], in experiment [2] and in experiment [3] was > 1000 nM in each case.
Regarding `CCCn1c(=O)c2[nH]c(-c3cc(OCC(=O)Nc4ccc(C(=O)OCC)cc4)nn3C)nc2n(CCC)c1=O` [AS94, 1,3-di-n-propyl-8-{5-[(4-(ethoxycarbonyl)-phenylcarbamoyl)-methoxy]-2-methyl-2H-pyrazole-3-yl}-xanthine], the inhibitory constant (Ki) is 32 nM in experiment [1], > 1000 nM in experiment [2] and > 1000 nM in experiment [3].
For `CCCn1c(=O)c2[nH]c(-c3cc(OCC(=O)Nc4ccc(OC)cc4)no3)nc2n(CCC)c1=O` [AS75, 1,3-di-n-propyl-8-{3-[(4-methoxy-phenylcarbamoyl)-methoxy]-isoxazol-5-yl}-xanthine], the inhibitory constant (Ki) in experiment [1] was 53 nM; in experiment [2] it was > 1000 nM; in experiment [3], > 1000 nM.
Regarding `Cn1nc(NC(=O)Cc2ccccc2)cc1-c1nc2c([nH]1)c(=O)n(C)c(=O)n2C` [AS40, N-[5-(2,6-dioxo-1,3-dimethyl-2,3,6,9-tetrahydro-1H-purin-8-yl)-1-methyl-1H-pyrazol-3-yl]-2-phenylacetamide], the figures for the Ki in experiment [1], in experiment [2] and in experiment [3] were 569 nM, > 1000 nM and > 1000 nM, respectively.
Consider `CCCn1c(=O)c2[nH]c(-c3ccc(OCC(=O)Nc4ccc(I)cc4)nn3)nc2n(CCC)c1=O` [AS85, 1,3-di-n-propyl-8-{6-[(4-iodo-phenylcarbamoyl)-methoxy]-pyridazin-3-yl}-xanthine], for which the Ki in experiment [1], in experiment [2] and in experiment [3] was > 1000 nM in each case.
Turning to `CCCn1c(=O)c2[nH]c(-c3cc(NC(=O)Cc4ccc(N(C)C)cc4)nn3C)nc2n(CCC)c1=O` [AS26, N-[5-(2,6-dioxo-1,3-dipropyl-2,3,6,9-tetrahydro-1H-purin-8-yl)-1-methyl-1H-pyrazol-3-yl]-2-[4-(N,N-dimethylamino)phenyl]acetamide], the inhibition constant (Ki) in experiment [1] is 1630 nM; in experiment [2], > 1000 nM; in experiment [3], > 1000 nM.
Take `CCCn1c(=O)c2[nH]c(-c3cc(NC(=O)Cc4ccc(O)c(OC)c4)nn3C)nc2n(CCC)c1=O` [AS58, N-[5-(2,6-dioxo-1,3-dipropyl-2,3,6,9-tetrahydro-1H-purin-8-yl)-1-methyl-1H-pyrazol-3-yl]-2-(4-hydroxy-3-methoxyphenyl)acetamide]: the values for the Ki in experiment [1], in experiment [2] and in experiment [3] were 342 nM, > 1000 nM and 1760 nM, respectively.
As to `CCCn1c(=O)c2[nH]c(-c3cc(NC(=O)CCC(=O)O)nn3C)nc2n(CCC)c1=O` [AS8, 4-{[5-(1,3-dipropyl-2,6-dioxo-2,3,6,7-tetrahydro-1H-purin-8-yl)-1-methyl-1H-pyrazol-3-yl]amino}-4-oxobutanoic acid], the Ki in experiment [1], in experiment [2] and in experiment [3] was > 1000 nM each time.
In the case of `CCCn1c(=O)c2[nH]c(-c3cc(OCC(=O)Nc4ccc(OC)c(OC)c4)no3)nc2n(CCC)c1=O` [AS76, 1,3-di-n-propyl-8-{3-[(3,4-dimethoxy-phenylcarbamoyl)-methoxy]-isoxazol-5-yl}-xanthine], the Ki is 51 nM in experiment [1], > 1000 nM in experiment [2] and > 1000 nM in experiment [3].
Take `CCCn1c(=O)c2[nH]c(-c3cc(OCC(=O)Nc4ccc(F)cc4)no3)nc2n(CCC)c1=O` [AS73, 1,3-di-n-propyl-8-{3-[(4-fluoro-phenylcarbamoyl)-methoxy]-isoxazol-5-yl}-xanthine]: the values for the Ki in experiment [1], in experiment [2] and in experiment [3] were 70 nM, > 1000 nM and > 1000 nM, respectively.
Turning to `CCCn1c(=O)c2[nH]c(-c3cc(OCC(=O)N4CCN(c5ccc(F)cc5)CC4)nn3C)nc2n(CCC)c1=O` [AS72, 8-(5-{2-[4-(4-Fluoro-phenyl)-piperazin-1-yl]-2-oxo-ethoxy}-2-methyl-2H-pyrazol-3-yl)-1,3-dipropyl-3,7-dihydro-purine-2,6-dione], the Ki is 55 nM in experiment [1], > 1000 nM in experiment [2] and > 1000 nM in experiment [3].
